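Protocol summary: plate cells (96-well), add compound at 5 concentrations, incubate 48 h, interpolate endpoints linearly. TGI is the concentration that stops growth completely.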 Some results are limits rather than exact numbers.

Some test systems named below: K-562 leukemia; OVCAR-5 ovarian; PC-3 prostate; SR leukemia; HOP-92 NSCLC; NCI-H460 lung; HCC-2998 colon; BT-549 breast; MDA-MB-231 breast; NCI-H23 lung; HS 578T breast; SNB-75 CNS; ACHN renal; SK-OV-3 ovarian; T-47D breast; HT29 colon; SF-539 CNS; UACC-62 melanoma; A549 NSCLC; NCI/ADR-RES ovarian.
Test in all cases: NCI-60 cell line screen, 48 h

For `C=C1CC/C=C(\C)CCC[C@H](C)[C@@H](O)[C@@H]2OC(=O)C(=C)[C@@H]2C[C@H]1O`, the TGI in the experiment with K-562 leukemia is above 38.8 µM; in the experiment on OVCAR-5 ovarian, 39.2 µM; with PC-3 prostate, 23.1 µM; in the experiment with SR leukemia, above 100 µM; in the experiment on HOP-92 NSCLC it was 7.22 µM; in the experiment with NCI-H460 lung, 27.1 µM. The TGI with HCC-2998 colon turned out to be 50.5 µM; in the experiment on BT-549 breast it was 3 µM; in the experiment with MDA-MB-231 breast it was 50.5 µM; with NCI-H23 lung, 26.8 µM; with HS 578T breast it was 33.9 µM; with SNB-75 CNS, 24.7 µM. The TGI with ACHN renal is 9.5 µM; with SK-OV-3 ovarian it was above 64.1 µM; with T-47D breast, 47.1 µM; with HT29 colon, 15.2 µM; with SF-539 CNS, 6.94 µM; in the experiment on UACC-62 melanoma it was 25.9 µM. Moreover, the TGI with A549 NSCLC was 33.9 µM; in the experiment on NCI/ADR-RES ovarian it was 27.2 µM.
Consider `CC1(C)OC2C(O)C(CO)OC2(C(F)F)O1` (stereo not given), for which the TGI in the experiment on K-562 leukemia, in the experiment on OVCAR-5 ovarian, in the experiment with PC-3 prostate, with SR leukemia, in the experiment with HOP-92 NSCLC and in the experiment with NCI-H460 lung was above 100 µM in each case. In addition, the TGI in the experiment on HCC-2998 colon, in the experiment on BT-549 breast, in the experiment with MDA-MB-231 breast, in the experiment with NCI-H23 lung, in the experiment on HS 578T breast and in the experiment on SNB-75 CNS was above 100 µM in each case. In addition, the TGI with ACHN renal, with SK-OV-3 ovarian, with T-47D breast, with HT29 colon, in the experiment on SF-539 CNS and in the experiment on UACC-62 melanoma was above 100 µM each time. For the same molecule, the TGI with A549 NSCLC and in the experiment on NCI/ADR-RES ovarian was above 100 µM throughout.
With `CC(Oc1ccc(Cl)cc1Cl)C(=O)NN1C(=O)CSC1c1ccccc1` (stereo not given), the TGI is above 100 µM in the experiment on K-562 leukemia; above 100 µM with OVCAR-5 ovarian; above 100 µM in the experiment on PC-3 prostate; 19.2 µM with SR leukemia; 83.8 µM in the experiment on HOP-92 NSCLC; above 100 µM with NCI-H460 lung. The TGI was above 100 µM with HCC-2998 colon; 46.5 µM with BT-549 breast; above 100 µM in the experiment with MDA-MB-231 breast; above 100 µM with NCI-H23 lung; above 100 µM with HS 578T breast; above 100 µM in the experiment with SNB-75 CNS. Moreover, the TGI in the experiment on ACHN renal, with SK-OV-3 ovarian, in the experiment with T-47D breast, in the experiment with HT29 colon, in the experiment with SF-539 CNS and with UACC-62 melanoma was above 100 µM in each case. For the same molecule, the TGI with A549 NSCLC and in the experiment on NCI/ADR-RES ovarian was above 100 µM each time.
As to `COc1cc2c3c(c1OC)-c1cc4c(cc1CC3(C#N)N(C(=O)c1ccccc1)CC2)OCO4` (stereo not given), the TGI was above 100 µM with K-562 leukemia; above 56.2 µM in the experiment on OVCAR-5 ovarian; above 100 µM with PC-3 prostate; above 100 µM in the experiment on SR leukemia; 32.5 µM in the experiment on HOP-92 NSCLC; above 100 µM with NCI-H460 lung. The TGI in the experiment with HCC-2998 colon was above 100 µM; with BT-549 breast it was above 100 µM; in the experiment with MDA-MB-231 breast, above 100 µM; with NCI-H23 lung it was 54.1 µM; in the experiment on HS 578T breast, 82 µM; with SNB-75 CNS it was 28.1 µM. The TGI with ACHN renal is above 97.2 µM; in the experiment on SK-OV-3 ovarian it was 44.4 µM; in the experiment with T-47D breast it was above 100 µM; in the experiment on HT29 colon, above 100 µM; in the experiment on SF-539 CNS, 54.7 µM; in the experiment with UACC-62 melanoma it was 43.2 µM. Further, the TGI in the experiment with A549 NSCLC and with NCI/ADR-RES ovarian was above 100 µM in each case.
Regarding `CCOC(=O)/C=C(/C(=O)OCC)n1cnc2c(=O)[nH]c(NC(C)=O)nc21`, the TGI with K-562 leukemia, in the experiment with OVCAR-5 ovarian, in the experiment with PC-3 prostate, with SR leukemia, in the experiment on HOP-92 NSCLC and in the experiment with NCI-H460 lung was above 100 µM each time. Further, the TGI in the experiment on HCC-2998 colon, in the experiment with BT-549 breast, in the experiment with MDA-MB-231 breast, in the experiment on NCI-H23 lung, with HS 578T breast and in the experiment on SNB-75 CNS was above 100 µM each time. For the same molecule, the TGI in the experiment with ACHN renal, in the experiment with SK-OV-3 ovarian, with T-47D breast, with HT29 colon, in the experiment on SF-539 CNS and in the experiment with UACC-62 melanoma was above 100 µM throughout. Further, the TGI in the experiment with A549 NSCLC and with NCI/ADR-RES ovarian was above 100 µM each time.
For the molecule `CCOC(=O)/C=C(\C(=O)OCC)n1ccc(=O)n(Cc2cn(CCCCOC(C)=O)nn2)c1=O`, the TGI with K-562 leukemia is above 34.1 µM; in the experiment on OVCAR-5 ovarian, 31.4 µM; with PC-3 prostate it was 36.9 µM; in the experiment on SR leukemia, above 36 µM; in the experiment on HOP-92 NSCLC, 5.15 µM; with NCI-H460 lung, 57.7 µM. Besides, the TGI came out at 41 µM in the experiment on HCC-2998 colon; 24.7 µM in the experiment on BT-549 breast; 39.1 µM in the experiment on MDA-MB-231 breast; 32.3 µM with NCI-H23 lung; 63.1 µM in the experiment on HS 578T breast; 41.8 µM in the experiment on SNB-75 CNS. Moreover, the TGI in the experiment with ACHN renal is 11.4 µM; in the experiment on SK-OV-3 ovarian it was above 65.5 µM; in the experiment with T-47D breast, above 41 µM; with HT29 colon it was 21.7 µM; with SF-539 CNS, 5.65 µM; with UACC-62 melanoma, 33.2 µM. Besides, the results for the TGI with A549 NSCLC and in the experiment with NCI/ADR-RES ovarian were 45.9 µM and 53.3 µM, respectively.
With `COC(=O)/C=C\C(C#N)(C#N)N=Cc1cc(Br)cs1`, the TGI with K-562 leukemia was above 100 µM; with OVCAR-5 ovarian it was 20.8 µM; in the experiment with PC-3 prostate it was 16 µM; in the experiment with SR leukemia, above 100 µM; in the experiment with HOP-92 NSCLC it was 4.73 µM; in the experiment with NCI-H460 lung, 40.7 µM. Also, the TGI worked out at 30.8 µM in the experiment on HCC-2998 colon; 17.9 µM with BT-549 breast; 23.3 µM in the experiment on MDA-MB-231 breast; 13.5 µM with NCI-H23 lung; 45.1 µM with HS 578T breast; 29.7 µM in the experiment on SNB-75 CNS. For the same molecule, the TGI was 4.93 µM in the experiment with ACHN renal; 33.6 µM with SK-OV-3 ovarian; 5.07 µM in the experiment with T-47D breast; 4.86 µM in the experiment on HT29 colon; 11 µM in the experiment with SF-539 CNS; 33 µM in the experiment with UACC-62 melanoma. Also, the figures for the TGI with A549 NSCLC and in the experiment on NCI/ADR-RES ovarian were 32.4 µM and 36.3 µM, respectively.

For the origin of these results see PubChem BioAssay (NCI).
